Laboratory results from US8088819B2, “Derivatives of substituted 3-phenyl-1-(phenylthienyl)propan-1-ones and of 3-phenyl-1-(phenylfuranyl) propan-1-ones, preparation and use” (priority 2006, dated 2012).

Experiments:
hPPARdelta = target: T1, hPPARdelta (Homo sapiens, UniProt Q03181); experiment: PPAR activation: Gal4-hPPARδ chimera luciferase transactivation in COS-7 cells, Method 2; format: cell-based; settings: COS-7, 24 h
T1 construct: expressed in transfected cells; host or cells: COS-7 (monkey kidney fibroblasts)
T1 sequence (Q03181 211-439 limits assumed): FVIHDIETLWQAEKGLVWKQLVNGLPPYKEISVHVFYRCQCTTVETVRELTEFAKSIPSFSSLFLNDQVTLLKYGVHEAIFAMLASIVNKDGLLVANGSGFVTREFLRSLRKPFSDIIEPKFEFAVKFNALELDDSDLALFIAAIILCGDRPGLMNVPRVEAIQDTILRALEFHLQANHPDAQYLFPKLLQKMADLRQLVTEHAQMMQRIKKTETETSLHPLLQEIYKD
Outline: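 COS-7 cells were transfected with Gal4-PPAR LBD chimera plus Gal4(RE)_TkpGL3 luciferase reporter (1/10) and seeded serum-free for 4 h. Compounds at 10^−5 to 100 μm were applied for 24 h at 37° C in 1% lipid-free synthetic serum. Luciferase was read after lysis, and EC50 derived.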

db/db mouse = experiment: Plasma triglycerides and insulinemia in the db/db mouse; format: in vivo; settings: 50 mpk oral, 28 days
Description: The effect of the compounds according to the invention is evaluated in vivo in the db/db mouse by measuring the plasma triglycerides and insulinemia after 28 days of treatment with compound 2 by the oral route. These levels are compared with those obtained with control animals (not treated with the compound according to the invention). The measured difference provides evidence of the antilipemic effect and effect on insulin resistance of the compound according to the invention.
Female db/db mice were kept under a cycle of light and darkness of 12/12 hours at a constant temperature of 20±3° C. After acclimation for one week, the mice were weighed and put in groups of 8 animals selected so that the distribution of their body weight and of their plasma lipid levels, determined for the first time before the experiment, are uniform. The test compounds were suspended in carboxymethylcellulose (Sigma C4888) and administered by intragastric force feeding, at a rate of once per day for 28 days at the chosen dose. The animals had free access to water and to food (standard diet). The food intake and the weight gain are recorded throughout the experiment. […]
The plasma concentrations of triglycerides were measured by enzyme assays (bioMérieux-Lyon-France) following the supplier's recommendations. […]

[1] = test system: target genes of the PPARs; experiment: Expression of target genes of the PPARs in hepatic and muscle tissues of the db/db mouse, quantitative RT-PCR; format: in vivo; settings: db/db mice; 50 mpk; 28 days
Description: The efficacy of the compound according to the invention is also evaluated by measuring, in the hepatic and muscle tissues, the expression of genes involved in carbohydrate and lipid metabolism, and the dissipation of energy. The levels of expression of each gene are normalized relative to the level of expression of the reference genes 36B4 in the liver and 18S in the skeletal muscle. The induction factor, i.e. the ratio of the relative signal (induced by the compound according to the invention) to the mean of the relative values of the control group, is then calculated. The higher this factor, the greater the gene expression activating character of the compound. The final result is represented as the mean of the induction values in each experimental group.
Female db/db mice were kept under a cycle of light and darkness of 12/12 hours at a constant temperature of 20±3° C. After acclimation for one week, the mice were weighed and put in groups of 8 animals selected so that the distribution of their body weight and of their plasma lipid levels, determined for the first time before the experiment, are uniform. The test compounds were suspended in carboxymethylcellulose (Sigma C4888) and administered by intragastric force feeding, at a rate of once per day for 28 days at the chosen dose. The animals had free access to water and to food (standard diet). The food intake and the weight gain are recorded throughout the experiment. At the end of the experiment, the animals were anesthetized after fasting for 4 hours, a blood sample was taken using anticoagulant (EDTA), then the mice were weighed and euthanased. The plasma was separated by centrifugation at 3000 rev/min for 20 minutes, and the samples were stored at +4° C.
Samples of hepatic and muscle tissues were taken and frozen immediately in liquid nitrogen and then stored at −80° C. for later analyses. […]
1 μg of total RNA (quantified by UV spectrophotometry) was then reverse-transcribed to complementary DNA by reaction for 1 hour at 37° C. in a total volume of 30 μl containing buffer 1× (Invitrogen), 1.5 mM of DTT, 0.18 mM of dNTPs (Promega), 200 ng of pdN6 (Amersham), 30 U of RNase inhibitor (Promega) and 1 μl of MMLV-RT (Invitrogen).
The quantitative PCR experiments were carried out using the MyiQ Single-Color Real-Time PCR Detection System (Biorad, Marnes-la-Coquette, France) and were performed using the iQ SYBR Green Supermix kit following the supplier's recommendations, in 96-well plates, on 5 μL of diluted reverse-transcription reaction mixture with a hybridization temperature of 60° C. […]
The amount of fluorescence emitted is directly proportional to the amount of complementary DNA present at the start of the reaction and amplified during PCR. […] The relative expression levels of each target are thus determined using the efficacy curves obtained with the points in the range.
The levels of expression of the genes of interest were then normalized, […] relative to the level of expression of the reference gene 36B4 (whose specific primers are: sense primer: 5′-[…]-3′ (SEQ ID No. 19) and antisense primer: 5′-[…]-3′ (SEQ ID No. 20)), and in the muscle tissue relative to the level of expression of the reference gene 18S (whose specific primers are: sense primer: 5′-[…]-3′ (SEQ ID No. 21) and antisense primer: 5′-[…]-3′ (SEQ ID No. 22)). The induction factor was calculated for each sample. […]

Structure (SMILES)	EC50 (hPPARdelta; 1% Ultroser)	Emax (hPPARdelta; maximum percentage response relative to the reference GW501516, read-out: hPPARdelta % max)	insulinemia (plasma levels of insulin) (db/db mouse)	plasma triglyceride level (db/db mouse)	expression of the gene coding for ACOX1 in the liver [1]	expression of the gene coding for CPT1b in the skeletal muscle [1]	expression of the gene coding for PDK4 in the liver [1]	expression of the gene coding for PDK4 in the skeletal muscle [1]	expression of the gene coding for UCP2 in the skeletal muscle [1]
CC(C)(Oc1ccc(CCC(OCc2ccccc2)c2ccc(-c3ccc(C(F)(F)F)cc3)s2)c(Cl)c1Cl)C(=O)O (stereo not drawn) [Compound 7, 2-(4-(3-(benzyloxy)-3-(5-(4-(trifluoromethyl)phenyl)thien-2-yl)propyl)-2,3-dichlorophenoxy)-2-methylpropanoic acid]	30 nM	92%							
CC(C)(Oc1ccc(CCC(=O)c2ccc(-c3ccc(C(F)(F)F)cc3)s2)c(Cl)c1Cl)C(=O)O [Compound 2, 2-(2,3-dichloro-4-(3-oxo-3-(5-(4-(trifluoromethyl)phenyl)thien-2-yl)propyl)phenoxy)-2-methylpropanoic acid]			lowered significantly	lowered significantly	significant increase	significant increase	significant increase	significant increase	significant increase
